{"source": "patent US9381229B2", "about": "“Pharmaceutical composition for use in the treatment of dysfunction associated with aging” (INSERM (INSTITUT NATIONAL DE LA SANTE ET DE LA RECHERCHE …, priority 2011, dated 2016)", "key": {"[1]": {"test_system": "ACC", "details": "muscle of insulin-resistant mice", "procedure": "(§1) Mice were handled in accordance with the principles and guidelines established by INSERM. C57B16/J wild-type (WT) mice were obtained from Harlah (Gannat, France). […] Moris J. Birnbaum (Howard Hughes Medical Institute, University of Pennsylvania, Philadelphia, Pa.). Apelin-deficient (apelin−/−) mice were generated as described previously (10) and backcrossed to C57B16/J mice >10 times. Mice were housed conventionally in a constant temperature (20-22° C.) and humidity (50-60%) animal room, with a 12/12 h light/dark cycle (lights on at 7:00 a.m.) and free access to food and water. The C57B16/J and AMPK-DN mice were fed an ND from weaning until aged 10 weeks and then either maintained on ND (control group) or fed an HFD containing 20% protein, 35% carbohydrate, and 45% fat (Research Diets, New Brunswick, N.J.). Apelin treatment began after the onset of insulin resistance in males aged 23 weeks. Mice were injected daily with apelin-13 (Phoenix Biotech) at […] i.p. as previously described (7) for 28 days. Age-matched control mice were PBS injected during the same period. Standard mice were also treated with a specific APJ receptor antagonist (F13A) (Phoenix Biotech) (11) at 0.2 μmol/kg/day during 28 days or with the combination of apelin and F13A. All mice were killed 24 h after the last apelin injection in a fed state.\n(§2) Membranes were probed with β-actin or AMPK or ACC antibodies for total proteins."}, "[2]": {"test_system": "mitochondrial complexes", "details": "muscle of HFD mice; chronic apelin treatment", "procedure": "as §1, §2"}, "[3]": {"test_system": "AMPK", "details": "muscle of insulin-resistant mice", "procedure": "as §1, §2"}, "[4]": {"experiment": "Plasma apelin concentration in HFD mice (Example 3)", "type": "in vivo", "procedure": "Plasma fatty acids (FM) and TGs measured by colorimetric technique with the Wako NEFA kit (Wako Chemicals) and the PAP 150 Kit (bioMerieux), respectively, as well as plasma leptin, adiponectin (Quantikine; R&D Systems), and apelin (Phoenix Pharmaceuticals, Inc.), were determined in the fed state at the end of the treatment. Insulinemia (Mercodia, Uppsala, Sweden) and glycemia measured with a glucometer (Accu-check; Roche Diagnostics) were determined in the fasted state on blood from the tail vein."}, "[5]": {"test_system": "Malonyl-CoA", "details": "soleus muscle of insulin-resistant mice", "procedure": "as §1"}, "[6]": {"test_system": "citrate synthase", "details": "muscle homogenates; HFD mice; n=7-9; P<0.001 vs control", "procedure": "as §1"}, "[7]": {"test_system": "mitochondria of soleus muscle", "details": "HFD mice", "procedure": "as §1"}, "[8]": {"test_system": "muscle of insulin-resistant mice", "details": "HFD mice; chronic apelin treatment 28 days", "procedure": "as §1"}, "[9]": {"test_system": "soleus muscle", "procedure": "as §1"}, "[10]": {"test_system": "AMPK", "details": "muscle of HFD AMPK-DN apelin-treated mice", "procedure": "as §1"}, "[11]": {"test_system": "mtDNA", "experiment": "Mitochondrial DNA analysis in soleus muscle (COX1 to cyclophilin A)", "type": "in vivo", "details": "HFD mice", "procedure": "Total DNA was extracted from soleus muscle using a commercial kit (DNeasy; QIAGEN). The content of mitochondrial (mt)DNA was calculated using real-time quantitative PCR by measuring the threshold cycle ratio of a mitochondrial encoded gene (COX1) and a nuclear-encoded gene (cyclophilin A) as previously described (15)."}, "[12]": {"test_system": "Myf5", "details": "for Myf5 marker quantification (mRNA), Mean: apelin 0.1 μmole/kg/day ip, 28 days", "procedure": "(§3) Mice were handled in accordance with the principles and guidelines established by the National Institute of Medical Research (INSERM). C57B16/J wild type mice were obtained from Harlan (Gannat, France). CMV-KO apelin mice were obtained from Genoway (Lyon, France). Mice were housed conventionally in a constant temperature (20-22° C.) and humidity (50-60%) animal room, with a 12/12 h light/dark cycle (lights on at 8:00 am) and free access to food and water. The mice were fed a chow diet from weaning until 10-week-old and then either maintained on a chow diet (Research Diet, NJ).\n(§4) Apelin treatment was processing to mice from 31 weeks old to 35 weeks old. Mice were daily injected with intraperitoneal injection of apelin (0.1 μmole/kg/day) as previously described (Higuchi et al 2005; Yue et al 2010) for 28 days. Age-matched control mice were PBS-injected during the same period. All mice were sacrificed 24 h after the last apelin ip injection in a fed state.\n(§5) Total RNAs ([…]) were isolated from muscles using GeneJET RNA Purification Kit (Fermentas, USA). Total RNAs were reverse transcribed using random hexamers and Superscript 11 reverse transcriptase (Invitrogen, UK). Real time PCR was performed as previously described (Boucher et al. 2005)."}, "[13]": {"test_system": "Myostatin", "details": "for Myostatin marker quantification (mRNA), Mean: apelin 0.1 μmole/kg/day ip, 28 days", "procedure": "as §3, §4, §5"}, "[14]": {"test_system": "myogenin", "details": "for myogenin marker quantification (mRNA), Mean: apelin 0.1 μmole/kg/day ip, 28 days", "procedure": "as §3, §4, §5"}, "[15]": {"test_system": "MyoD", "details": "for MyoD marker quantification (mRNA), Mean: apelin 0.1 μmole/kg/day ip, 28 days", "procedure": "as §3, §4, §5"}, "[16]": {"test_system": "nuclear respiratory factor 1 (NRF1)", "details": "soleus muscle; HFD mice; chronic apelin treatment", "procedure": "as §1\n(§6) Total RNAs (1 μg) were isolated from muscle using RNA STAT (AMS Technology, Lutterworth, U.K.) and were reverse transcribed using random hexamers and Superscript II reverse transcriptase (Invitrogen, Paisley, U.K.). Real time PCR was performed as previously described (1). Analysis of the 18S ribosomal RNA was performed using the ribosomal RNA control TaqMan Assay Kit (Applied Biosystems) to normalize gene expression."}, "[17]": {"test_system": "mitochondrial transcription factor A (TFAM)", "details": "soleus muscle; HFD mice; chronic apelin treatment", "procedure": "as §1, §6"}, "[18]": {"test_system": "PGC1-β", "details": "soleus muscle; HFD mice; chronic apelin treatment", "procedure": "as §1, §6"}, "[19]": {"test_system": "PGC1-α", "details": "soleus muscle; HFD mice; chronic apelin treatment", "procedure": "as §1, §6"}, "[20]": {"experiment": "Plasma apelin concentration after ip bolus of apelin (Example 1)", "type": "in vivo, mice", "details": "bolus of ip apelin 0.1 μmole/kg; 10 min after injection"}, "[21]": {"details": "soleus muscle, HFD mice, chronic apelin treatment"}, "[22]": {"details": "quadriceps muscles of moderate aged-mice, 28-days treatment"}}, "note": "Read-outs that look alike come from different tables or passages of the source.", "data": [{"smiles": "CSCC[C@H](NC(=O)[C@@H]1CCCN1C(=O)CNC(=O)[C@H](CCCCN)NC(=O)[C@H](Cc1cnc[nH]1)NC(=O)[C@H](CO)NC(=O)[C@H](CC(C)C)NC(=O)[C@H](CCCNC(=N)N)NC(=O)[C@@H]1CCCN1C(=O)[C@H](CCCNC(=N)N)NC(=O)[C@@H](N)CCC(N)=O)C(=O)N1CCC[C@H]1C(=O)N[C@@H](Cc1ccccc1)C(=O)O", "note": "[apelin, apelin-13]", "values": [{"measurement": "ACC phosphorylation (FIG. 6A)", "setting": "[1]", "result": "significantly increased"}, {"measurement": "Protein expression of complex II, III, and V (FIG. 5B)", "setting": "[2]", "result": "significantly increased"}, {"measurement": "AMPK phosphorylation (FIG. 6A)", "setting": "[3]", "result": "significantly increased"}, {"measurement": "Plasma apelin concentrations, increase", "setting": "[4]; HFD mice, bolus of apelin 0.1 μmol/kg i.p., 10 min after injection", "result": "> 2.4", "unit": "fold"}, {"measurement": "Plasma apelin concentrations, apelin-treated vs PBS-treated mice", "setting": "[4]; at the end of the 28-day treatment", "result": "not different"}, {"measurement": "level at 10 min", "setting": "[4]; mouse, in vivo, ip, 0.1 umol/kg, HFD mice, bolus of apelin 0.1 μmol/kg i.p., 10 min after injection, n=5", "result": "4.12 ± 0.96", "unit": "ng/mL"}, {"measurement": "malonyl-CoA concentrations (FIG. 6B)", "setting": "[5]", "result": "significant reduction"}, {"measurement": "citrate synthase activity", "setting": "[6]", "result": "2.91±0.07", "unit": "μmol/min/mg proteins"}, {"measurement": "alterations of mitochondria ultrastructure in IMF and SS mitochondria (FIG. 5E)", "setting": "[7]", "result": "Fewer adverse alterations"}, {"measurement": "density of intramyofibrillar (IMF) mitochondria (FIG. 5E)", "setting": "[7]", "result": "significantly increased"}, {"measurement": "succinate and adenylate-driven respiration (State 3)", "setting": "[7]; permeabilized soleus fibers", "result": "significantly higher"}, {"measurement": "succinate-driven mitochondrial respiration (complex II) vs control (FIG. 5A)", "setting": "[7]; permeabilized soleus fibers", "result": "significantly higher"}, {"measurement": "glutamate/malate-driven mitochondrial respiration (complex I), apelin- vs PBS-treated", "setting": "[7]; permeabilized soleus fibers, data not shown", "result": "No difference"}, {"measurement": "amount of IMTG and DAG in muscle vs PBS treatment (FIG. 4A)", "setting": "[8]", "result": "does not reduce"}, {"measurement": "insulin-stimulated glucose uptake vs PBS-treated mice (FIG. 7B)", "setting": "[9]; 100 nmol/L insulin, HFD mice", "result": "significantly increased"}, {"measurement": "rate of palmitate incorporation into TG (FIG. 4B)", "setting": "[9]; HFD mice, chronic apelin treatment 28 days", "result": "no effect"}, {"measurement": "acylcarnitine levels, especially C16:1 and C18:1 species, vs HFD PBS-treated mice (FIG. 7A)", "setting": "[9]; soleus muscle homogenates", "result": "reduced"}, {"measurement": "complete oxidation of [14C]palmitate to CO2 vs PBS treatment (FIG. 4C)", "setting": "[9]; [21]", "result": "significantly increased"}, {"measurement": "incomplete oxidation of [14C]palmitate (FIG. 4C)", "setting": "[9]; [21]", "result": "not significantly increased"}, {"measurement": "apelin-increased FAO in HFD AMPK-DN mice vs HFD WT (FIG. 6C)", "setting": "[10]", "result": "completely blunted"}, {"measurement": "apelin-increased mitochondrial biogenesis in HFD AMPK-DN mice vs HFD WT (FIG. 6D)", "setting": "[10]", "result": "completely blunted"}, {"measurement": "overexpression of PGC1-α, TFAM, and NRF1 in HFD AMPK-DN mice (FIG. 6E)", "setting": "[10]", "result": "reduced"}, {"measurement": "mtDNA-to-nuclear DNA ratio vs PBS-treated mice (FIG. 5D)", "setting": "[11]", "result": "significantly higher"}, {"measurement": "Myf5 marker quantification (mRNA), Mean", "setting": "[12]; EDL muscle", "result": 1.200}, {"measurement": "Myf5 marker quantification (mRNA), Mean", "setting": "[12]; Gas muscle", "result": 5.340}, {"measurement": "Myf5 marker quantification (mRNA), Mean", "setting": "[12]; Quad muscle", "result": 5.820}, {"measurement": "Myf 5 expression, change in words (FIGS. 1A and B)", "setting": "[12]; [22]", "result": "increased"}, {"measurement": "Myostatin marker quantification (mRNA), Mean", "setting": "[13]; EDL muscle", "result": 114.660}, {"measurement": "Myostatin marker quantification (mRNA), Mean", "setting": "[13]; Gas muscle", "result": 1034.000}, {"measurement": "Myostatin marker quantification (mRNA), Mean", "setting": "[13]; Quad muscle", "result": 244.300}, {"measurement": "myostatin expression, change in words (FIGS. 1A and B)", "setting": "[13]; [22]", "result": "decrease"}, {"measurement": "myogenin marker quantification (mRNA), Mean", "setting": "[14]; EDL muscle", "result": 14.280}, {"measurement": "myogenin marker quantification (mRNA), Mean", "setting": "[14]; Gas muscle", "result": 23.360}, {"measurement": "myogenin marker quantification (mRNA), Mean", "setting": "[14]; Quad muscle", "result": 35.060}, {"measurement": "Myogenin expression, change in words (FIGS. 1A and B)", "setting": "[14]; [22]", "result": "increased"}, {"measurement": "MyoD marker quantification (mRNA), Mean", "setting": "[15]; EDL muscle", "result": 142.520}, {"measurement": "MyoD marker quantification (mRNA), Mean", "setting": "[15]; Gas muscle", "result": 222.300}, {"measurement": "MyoD marker quantification (mRNA), Mean", "setting": "[15]; Quad muscle", "result": 328.160}, {"measurement": "MyoD expression, change in words (FIGS. 1A and B)", "setting": "[15]; [22]", "result": "increased"}, {"measurement": "expression of NRF1", "setting": "[16]", "result": "upregulated"}, {"measurement": "expression of TFAM", "setting": "[17]", "result": "upregulated"}, {"measurement": "expression of PGC1-β (FIG. 5C)", "setting": "[18]", "result": "not modified"}, {"measurement": "Expression of PGC1-α (FIG. 5C)", "setting": "[19]", "result": "significantly increased"}, {"measurement": "Plasma apelin concentrations, increase", "setting": "[20]", "result": "over 2.5 fold"}]}]}
